From the supplement of paper PMC11061612

Experiments:
[1] = tested on: LB831-BLC (Bladder Carcinoma); experiment: combination Emax (second highest fraction inhibited in the dose matrix, 72 h); higher = more inhibition; extreme values may be limits of the assay
Procedure, shortened: (§1)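 Cell lines grown in DMEM/F12 or RPMI with 10% FBS were plated in 1536-well plates and held 24 hours at 37°C, 5% CO2 before 72 hours of exposure to two-drug dose matrices, with DMSO typically at 0.2%. CellTiter-Glo 2.0 luminescence gave viability, which was converted to inhibition. Vehicle wells were set to 0 and blank wells to 1. Combination Emax is the second-highest inhibition in the matrix, and Bliss excess is the observed combination effect minus the expected EA + EB − EA·EB, where EA and EB are the single-agent effects.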

[2] = tested on: CAL-148 (Breast Carcinoma); experiment: as above
Procedure, shortened: as §1

ES4 (Ewing's Sarcoma) = experiment: as above
Procedure, shortened: as §1

[3] = tested on: NCI-H82 (Small Cell Lung Carcinoma); experiment: as above
Procedure, shortened: as §1

[4] = tested on: KP-1N (Pancreatic Carcinoma); experiment: as above
Procedure, shortened: as §1

[5] = tested on: Hs-578-T (Breast Carcinoma); experiment: as above
Procedure, shortened: as §1

[6] = tested on: KURAMOCHI (Ovarian Carcinoma); experiment: Bliss excess, mean over the matrix (fraction); higher = more synergy
Procedure, shortened: as §1

[7] = tested on: MDA-MB-361 (Breast Carcinoma); experiment: as above
Procedure, shortened: as §1

[8] = tested on: HuP-T4 (Pancreatic Carcinoma); experiment: as above
Procedure, shortened: as §1

NB10 (Neuroblastoma) = experiment: as above
Procedure, shortened: as §1

[9] = tested on: COLO-205 (Colorectal Carcinoma); experiment: as above
Procedure, shortened: as §1

[10] = tested on: UM-UC-3 (Bladder Carcinoma); experiment: as above
Procedure, shortened: as §1

[11] = tested on: B-CPAP (Thyroid Gland Carcinoma); experiment: as above
Procedure, shortened: as §1

[12] = tested on: HT-1376 (Bladder Carcinoma); experiment: as above
Procedure, shortened: as §1

42-MG-BA (Glioblastoma) = experiment: as above
Procedure, shortened: as §1

[13] = tested on: DEL (T-Cell Non-Hodgkin's Lymphoma); experiment: as above
Procedure, shortened: as §1

[14] = tested on: Hs-578-T (Breast Carcinoma); experiment: as above
Procedure, shortened: as §1

[15] = tested on: SNU-5 (Gastric Carcinoma); experiment: as above
Procedure, shortened: as §1

[16] = tested on: HCC1806 (Breast Carcinoma); experiment: as above
Procedure, shortened: as §1

[17] = tested on: Ramos-2G6-4C10 (Burkitt's Lymphoma); experiment: as above
Procedure, shortened: as §1
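Wherever Bliss excess, mean over the matrix is given: after 72 h of two-drug dosing.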

| SMILES | combination Emax [1] | combination Emax [2] | combination Emax (ES4 (Ewing's Sarcoma)) | combination Emax [3] | combination Emax [4] | combination Emax [5] | Bliss excess [6] | Bliss excess [7] | Bliss excess [8] | Bliss excess (NB10 (Neuroblastoma)) | Bliss excess [9] | Bliss excess [10] | Bliss excess [11] | Bliss excess [12] | Bliss excess (42-MG-BA (Glioblastoma)) | Bliss excess [13] | Bliss excess [14] | Bliss excess [15] | Bliss excess [16] | Bliss excess [17] |
| --- | --- | --- | --- | --- | --- | --- | --- | --- | --- | --- | --- | --- | --- | --- | --- | --- | --- | --- | --- | --- |
| Cc1cc2ncnn2cc1Nc1ncc2c(n1)n(C1CCOCC1)c(=O)n2C [AZD7648] + O=C(c1cc(Cc2n[nH]c(=O)c3ccccc23)ccc1F)N1CCN(C(=O)C2CC2)CC1 [Olaparib] (first compound max 10 µM, 7x7, partner max 10 µM) | 0.253 | 0.255 | 0.572 | 0.333 | 0.257 | 0.507 | -0.0418 | -0.0204 | -0.0432 | -0.0102 | -0.0345 | -0.0297 | -0.0034 | -0.0549 | 0.0303 | 0.0174 | -0.0325 | -0.0316 | -0.0343 | -0.0281 |
| NC1(C(=O)N[C@@H](CCO)c2ccc(Cl)cc2)CCN(c2ncnc3[nH]ccc23)CC1 [Capivasertib] + CC(=O)c1c(C)c2cnc(Nc3ccc(N4CCNCC4)cn3)nc2n(C2CCCC2)c1=O [Palbociclib] (first compound max 10 µM, 7x7, partner max 10 µM) | 0.453 | 0.964 | 0.412 | 0.836 | 0.451 | 0.676 | -0.0124 | -0.0161 | -0.0118 | 0.0232 | 0.0317 | 0.0504 | -0.046 | -0.0388 | -0.0633 | 0.0706 | 0.0324 | -0.0253 | 0.0075 | -0.0512 |
| NC1(C(=O)N[C@@H](CCO)c2ccc(Cl)cc2)CCN(c2ncnc3[nH]ccc23)CC1 [Capivasertib] + CC(C)n1c(=O)n(C)c2cnc3cc(F)c(-c4ccc(OCCCN5CCCCC5)nc4)cc3c21 [AZD1390] (first compound max 10 µM, 7x7, partner max 0.3 µM) | 0.493 | 0.971 | 0.277 | 0.912 | 0.254 | 0.682 | -0.0085 | -0.0555 | -0.0978 | -0.0544 | -0.0605 | -0.0211 | -0.0897 | -0.0399 | -0.0608 | 0.0336 | -0.0363 | -0.0708 | -0.0732 | -0.0205 |
| NC1(C(=O)N[C@@H](CCO)c2ccc(Cl)cc2)CCN(c2ncnc3[nH]ccc23)CC1 [Capivasertib] + CCN(CCO)CCCOc1ccc2c(Nc3cc(CC(=O)Nc4cccc(F)c4)[nH]n3)ncnc2c1 [AZD2811] (first compound max 10 µM, 7x7, partner max 1 µM) | 0.482 | 1 | 0.422 | 0.925 | 0.288 | 0.732 | -0.0444 | 0.0141 | -0.0614 | -0.0793 | -0.0551 | -0.0255 | -0.0298 | -0.0314 | -0.0306 | -0.0743 | -0.036 | -0.0103 | 0.0012 | 0.139 |
| NC1(C(=O)N[C@@H](CCO)c2ccc(Cl)cc2)CCN(c2ncnc3[nH]ccc23)CC1 [Capivasertib] + COc1nnc2ccc(N3CCC(c4ccc(OCCN5CCN(C)C(=O)[C@H]5C)cc4)CC3)nn12 [AZD5153] (first compound max 10 µM, 7x7, partner max 1 µM) | 0.608 | 1 | 0.624 | 0.885 | 0.621 | 0.887 | -0.0158 | 0.0588 | -0.0315 | 0.0121 | 0.0237 | -0.0158 | 0.062 | -0.0317 | 0.0611 | -0.0363 | 0.06 | 0.0149 | -0.003 | 0.0722 |
| NC1(C(=O)N[C@@H](CCO)c2ccc(Cl)cc2)CCN(c2ncnc3[nH]ccc23)CC1 [Capivasertib] + C[C@@H]1COCCN1C2=NC(=NC(=C2)C3(CC3)[S@](=N)(=O)C)C4=C5C=CNC5=NC=C4 [AZD6738] (first compound max 10 µM, 7x7, partner max 10 µM) | 0.539 | 0.986 | 0.851 | 0.967 | 0.323 | 0.823 | -0.0376 | -0.11 | -0.0333 | -0.0364 | 0.0092 | 0.0085 | -0.0465 | -0.0153 | -0.0514 | 0.0172 | -0.0739 | -0.0375 | -0.0333 | 0.0183 |
| NC1(C(=O)N[C@@H](CCO)c2ccc(Cl)cc2)CCN(c2ncnc3[nH]ccc23)CC1 [Capivasertib] + Cn1cnc2c(F)c(Nc3ccc(Br)cc3Cl)c(C(=O)NOCCO)cc21 [Selumetinib] (first compound max 10 µM, 7x7, partner max 10 µM) | 0.545 | 0.981 | 0.398 | 0.903 | 0.393 | 0.746 | 0.0079 | 0.0297 | 0.028 | 0.037 | -0.0598 | 0.0946 | 0.0496 | -0.0149 | 0.0697 | 0.054 | -0.0194 | 0.0345 | 0.0578 | -0.0166 |
| Cc1nc(Nc2ncc(C(=O)Nc3c(C)cccc3Cl)s2)cc(N2CCN(CCO)CC2)n1 [Dasatinib] + CC(=O)Nc1cccc(-n2c(=O)n(C3CC3)c(=O)c3c(Nc4ccc(I)cc4F)n(C)c(=O)c(C)c32)c1 [Trametinib] (first compound max 2 µM, 7x7, partner max 1 µM) | 0.493 | 0.254 | 0.215 | 0.203 | 0.478 | 0.922 | 0.0706 | -0.0072 | 0.0075 | -0.0024 | -0.128 | 0.112 | -0.0158 | 0.0158 | -0.023 | 0.0076 | -0.0526 | -0.0708 | -0.0461 | 0 |
| COc1cccc2c1C(=O)c1c(O)c3c(c(O)c1C2=O)C[C@@](O)(C(=O)CO)C[C@@H]3O[C@H]1C[C@H](N)[C@H](O)[C@H](C)O1 [Doxorubicin] + Cc1cc2ncnn2cc1Nc1ncc2c(n1)n(C1CCOCC1)c(=O)n2C [AZD7648] (first compound max 1 µM, 7x7, partner max 10 µM) | 0.871 | 1 | 0.945 | 0.949 | 0.675 | 0.856 | 0.0251 | 0.0255 | 0.0316 | 0.0799 | -0.0041 | 0.0688 | 0.106 | -0.0544 | 0.0271 | 0.0935 | 0.0412 | 0.007 | 0.0499 | 0.0786 |
| COc1cc2ncnc(Nc3ccc(F)c(Cl)c3)c2cc1OCCCN1CCOCC1 [Gefitinib] + CC(C)n1c(=O)n(C)c2cnc3cc(F)c(-c4ccc(OCCCN5CCCCC5)nc4)cc3c21 [AZD1390] (first compound max 10 µM, 7x7, partner max 0.3 µM) | 0.202 | 0.142 | 0.3 | 0.386 | 0.004 | 0.319 | -0.0401 | -0.0535 | -0.0574 | -0.0629 | -0.0578 | -0.0583 | -0.0752 | -0.0387 | -0.0891 | -0.0317 | -0.0685 | -0.0887 | -0.0425 | -0.0626 |
| CS(=O)(=O)CCNCc1ccc(-c2ccc3ncnc(Nc4ccc(OCc5cccc(F)c5)c(Cl)c4)c3c2)o1 [Lapatinib] + C[C@@H](Oc1cc(-c2cnn(C3CCNCC3)c2)cnc1N)c1c(Cl)ccc(F)c1Cl [Crizotinib] (first compound max 10 µM, 7x7, partner max 10 µM) | 0.826 | 0.771 | 0.928 | 0.936 | 0.809 | 0.991 | -0.0794 | 0.0278 | 0.0261 | -0.0771 | -0.0261 | -0.0739 | -0.0393 | -0.0343 | -0.0709 | 0.0074 | -0.0984 | 0.0306 | -0.0266 | -0.113 |
| CC(=O)c1c(C)c2cnc(Nc3ccc(N4CCNCC4)cn3)nc2n(C2CCCC2)c1=O [Palbociclib] + CC1(C)CCC(CN2CCN(c3ccc(C(=O)NS(=O)(=O)c4ccc(NCC5CCOCC5)c([N+](=O)[O-])c4)c(Oc4cnc5[nH]ccc5c4)c3)CC2)=C(c2ccc(Cl)cc2)C1 [Venetoclax] (first compound max 10 µM, 7x7, partner max 1 µM) | 0.108 | 0.161 | 0.21 | 0.634 | 0.212 | 0.189 | -0.0418 | -0.0751 | -0.0281 | 0.0062 | -0.0065 | -0.0219 | 0.0002 | -0.0453 | -0.0093 | 0.027 | -0.0447 | 0.0453 | -0.0213 | -0.106 |
| CC(=O)c1c(C)c2cnc(Nc3ccc(N4CCNCC4)cn3)nc2n(C2CCCC2)c1=O [Palbociclib] + Cc1c2c(nn1C)CSCc1cc(n(C)n1)CSc1cc(c3ccccc3c1)OCCCc1c(C(=O)O)n(C)c3c-2c(Cl)ccc13 [AZD5991] (first compound max 10 µM, 7x7, partner max 1 µM) | 0.275 | 0.376 | 0.244 | 0.98 | 0.212 | 0.372 | 0.0188 | -0.0789 | -0.0184 | 0.0435 | -0.0487 | -0.0212 | -0.0722 | -0.0073 | -0.0391 | 0.0007 | 0.0238 | -0.0206 | -0.0164 | -0.0226 |
